Experimental data as given in PubChem BioAssay (NCI).
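Following 48 hours of exposure in 96-well plates, responses at five concentrations were used to interpolate endpoints linearly. GI50: concentration for 50% inhibition of growth. The concentration for full growth arrest is given as TGI.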

Key:
Experiment in all cases: NCI-60 cell line screen, 48 h
MALME-3M melanoma = system: MALME-3M melanoma
OVCAR-8 ovarian = system: OVCAR-8 ovarian
SK-MEL-5 melanoma = system: SK-MEL-5 melanoma
RPMI-8226 leukemia = system: RPMI-8226 leukemia
HOP-62 NSCLC = system: HOP-62 NSCLC
MOLT-4 leukemia = system: MOLT-4 leukemia
KM12 colon = system: KM12 colon
NCI-H23 lung = system: NCI-H23 lung

Compound | TGI (MALME-3M melanoma) [µM] | TGI (OVCAR-8 ovarian) [µM] | TGI (SK-MEL-5 melanoma) [µM] | TGI (RPMI-8226 leukemia) [µM] | TGI (HOP-62 NSCLC) [µM] | TGI (MOLT-4 leukemia) [µM] | TGI (KM12 colon) [µM] | TGI (NCI-H23 lung) [µM] | GI50 (MALME-3M melanoma) [µM] | GI50 (OVCAR-8 ovarian) [µM] | GI50 (SK-MEL-5 melanoma) [µM] | GI50 (HOP-62 NSCLC) [µM] | GI50 (MOLT-4 leukemia) [µM] | GI50 (KM12 colon) [µM] | GI50 (NCI-H23 lung) [µM] | GI50 (RPMI-8226 leukemia) [µM]
CCCCCCCC[N+](C)(C)Cc1ccc(C[N+](C)(C)CCCCCCCC)cc1 | > 100 | > 100 | > 100 | > 100 | > 100 | > 100 | > 100 | 47 |  |  |  |  |  |  |  | 
C=C(C)C1CC=C(C(=O)O)CC1 (configuration not stated) | 1630 | > 5000 | 1450 |  | 1770 | > 5000 | 2140 | 2200 |  |  |  |  |  |  |  | 
Cc1nc(NC(=S)NC(=O)c2ccc(Cl)c(Cl)c2)sc1C(=O)/C=C/c1ccccc1[N+](=O)[O-] | 41.9 | 63.5 |  | > 100 | 47.9 | 52.6 | 39.3 | 44.9 |  |  |  |  |  |  |  | 
O=C1c2ccccc2C(=O)N1/N=C\c1ccc(Br)cc1 | > 100 | > 100 | > 100 | > 10 | > 100 | > 100 | > 100 | > 100 | > 100 | > 100 | > 100 | > 100 | > 100 | > 100 | > 100 | 
CC(=O)[CH-]C(=O)c1ccccc1.CC(=O)[CH-]C(=O)c1ccccc1.O=C([O-])C[O-].O=C([O-])C[O-].[Ti+4] | > 100 | > 100 | > 100 | > 100 | > 100 | > 100 | 69.2 |  | 34.3 | 77 | 31.9 | 58.7 | 27.7 | 21.7 |  | 49.9
O=C(O)/C(Cl)=C(\Cl)Nc1cccc(C(F)(F)F)c1 | > 100 | > 100 |  |  | > 100 |  |  | > 100 |  |  |  |  |  |  |  | 
CC1(C)CCC(=O)c2c(O)ccc(O)c21 | > 100 | > 100 | > 100 | > 100 |  | > 100 | > 100 | > 100 |  |  |  |  |  |  |  | 
COc1ccc2cc(C(=O)c3ccccc3C(=O)O)ccc2c1 | > 100 | > 100 | > 100 |  | > 100 | > 100 | > 100 | > 100 |  |  |  |  |  |  |  | 
c1cncc(C2c3[nH]c4ccccc4c3CCN2CCCN2CCCCC2)c1 (configuration not stated) | 92.5 | > 100 | > 100 | > 100 | > 100 | > 100 | > 100 | > 100 |  |  |  |  |  |  |  | 
CCOC(=O)C12CCCC1(O)N(NC(=O)c1cccc(Cl)c1)C(C)=C2C(=O)OC (configuration not stated) | > 100 | > 100 | > 100 | > 100 | > 100 | > 100 | > 100 |  |  |  |  |  |  |  |  | 
OCCN1CCN(CCO)Cc2ccccc2OCCOc2ccccc2C1 | > 100 | > 100 | > 100 | > 100 | > 100 | > 100 | > 100 | > 100 |  |  |  |  |  |  |  | 
CCCC(OCC)(OCC)OCC | > 100 | > 100 | > 100 | > 100 | > 100 | > 100 | > 100 | > 100 |  |  |  |  |  |  |  | 
CCOC(=O)/C(=C/c1ccc(OC)c(OC)c1)C(=O)c1ccccc1 | > 100 | 76.8 | 29.5 | 39.1 | 35.6 | 48.9 | 31.5 | 35.6 |  |  |  |  |  |  |  | 
COC(=O)C1=CC(O)CCC1c1ccc(OC)cc1 (configuration not stated) | > 100 | > 100 | > 100 | > 100 | > 100 | > 100 | > 100 | > 100 |  |  |  |  |  |  |  | 
Cc1cc(C)c(C(=O)O)c(N)c1O | > 100 | > 100 | > 100 | > 100 | > 100 | > 100 | > 100 | > 100 |  |  |  |  |  |  |  | 
CSc1nc(NC2OCC(OC(C)=O)C(OC(C)=O)C2OC(C)=O)c(N=CC=Nc2c(NC3OCC(OC(C)=O)C(OC(C)=O)C3OC(C)=O)nc(SC)n(C)c2=O)c(=O)n1C (configuration not stated) | > 100 | > 100 | > 100 | > 100 | > 100 |  | > 100 | > 100 |  |  |  |  |  |  |  | 
COc1cc(C(=O)C/C(CCC(=O)Nc2ccccc2[N+](=O)[O-])=N\NC(=O)C(N)=O)ccc1O |  | > 100 |  |  | > 100 | > 100 | > 100 | > 100 |  |  |  |  |  |  |  | 
CCCCCCCCCOC(=S)NC | 43.8 | 44.9 | 39.6 | 48.4 |  | 46.5 | 57 | 34.6 |  |  |  |  |  |  |  | 
COc1cccc(/C=C(/C(=O)O)c2cc(OC)c(OC)c(OC)c2)c1 | > 100 | > 100 | > 100 | > 100 | > 100 | > 100 | > 100 |  |  |  |  |  |  |  |  | 
CCc1ccccc1NC(=O)/C(CC(=O)c1c(C)n([O-])c2ccccc2[n+]1=O)=N\NS(=O)(=O)c1ccc(C)cc1 | > 100 | > 100 |  | 40 | > 100 | 42.6 | > 100 | > 100 |  |  |  |  |  |  |  | 
